Data published in paper PMC7226045, “Ensartinib (X-396) Effectively Modulates Pharmacokinetic Resistance Mediated by ABCB1 and ABCG2 Drug Efflux Transporters and CYP3A4 Biotransformation Enzyme” (Cancers, 2020).
pIC50: −log10 of the molar value.

What was measured:
CYP2D6 = target: T1, CYP2D6 (Homo sapiens, UniProt P10635); assay: Vivid CYP screening kit, recombinant CYP2D6; assay type: biochemical; conditions: recombinant enzyme
T1 construct: purchased Thermo Fisher Scientific; host or cells: insect microsomal fractions
T1 sequence (P10635 whole entry): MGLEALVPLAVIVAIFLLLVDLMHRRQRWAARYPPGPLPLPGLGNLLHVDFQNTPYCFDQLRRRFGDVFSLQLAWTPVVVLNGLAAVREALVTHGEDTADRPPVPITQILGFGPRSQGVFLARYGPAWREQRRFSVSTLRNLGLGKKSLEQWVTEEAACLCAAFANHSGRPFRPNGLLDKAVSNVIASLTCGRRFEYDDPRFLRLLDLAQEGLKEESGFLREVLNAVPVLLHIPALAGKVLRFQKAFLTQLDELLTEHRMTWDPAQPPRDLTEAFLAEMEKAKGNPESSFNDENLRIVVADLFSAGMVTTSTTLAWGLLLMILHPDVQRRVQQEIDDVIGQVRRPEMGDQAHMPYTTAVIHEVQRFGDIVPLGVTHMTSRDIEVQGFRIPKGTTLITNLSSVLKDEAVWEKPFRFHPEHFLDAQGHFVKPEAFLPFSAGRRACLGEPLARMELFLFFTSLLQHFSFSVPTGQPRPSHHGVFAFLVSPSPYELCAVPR
Procedure: CYP inhibitory assay was performed as described previously. Experiments were performed with commercial Vivid CYP screening kits containing insect microsomal fractions enriched with a specific human CYP isoform, human CYP reductase, and in some cases, human cytochrome b5. The potential inhibitory activity of ensartinib toward CYP1A2, CYP2B6, CYP2C8, CYP2C9, CYP2C19, CYP2D6, CYP3A4, and CYP3A5 (i.e., all CYP isoforms that drug regulatory authorities recommend for testing of inhibition by new molecular entities) was then examined. Experiments were performed using a kinetic mode in black 96-well plates according to the manufacturer´s instructions. Briefly, 5-point serial dilutions of ensartinib or the model inhibitor recommended by the manufacturer in buffer were transferred into the wells, then a master mix consisting of a CYP isoenzyme with an NADPH regeneration system in buffer was added. After a 10 min pre-incubation, the reaction was initiated by adding a mixture of NADP^+ and the appropriate Vivid substrate, after which fluorescence was measured at 1 min intervals for 60 min using an Infinite M200 Pro microplate reader (Tecan, Männedorf, Switzerland). The enzyme concentration and incubation interval used for data evaluation (15 min) placed the systems within the linear regions of the appropriate reaction velocity curves. […]

ABCB1 = test system: T2, ABCB1; assay: ABCB1 ATPase assay (ABCB1-Sf9 membrane fraction); assay type: biochemical; conditions: ABCB1-Sf9 membranes
T2 construct: purchased Solvo Biotechnology SB MDR1/P-gp; host or cells: Sf9 cell membranes
Procedure: The ABCB1 ATPase assay was performed with minor modifications as described previously. The ATPase activitity was determined using ABCB1 […] ATPase Kit according to the manufacturer’s instructions. Sf9 cell membranes (4 µg protein per well) were mixed with various concentrations of ensartinib. The reaction mixture was then incubated for 10 min at 37 °C in the presence or absence of 1.2 mM sodium orthovanadate. The ATPase reactions were started by the addition of 10 mM ATP magnesium salt and stopped 10 min later. After 30 min incubation, absorbance was measured at 590 nm using the microplate reader (Infinite M200, Tecan, Salzburg, Austria). Phosphate standards were present in each plate; verapamil was used as positive control for ABCB1 stimulation.

HL60-ABCG2 cells = assay: XTT proliferation / drug combination assay, HL60-ABCG2; assay type: cell-based, human
Procedure: The MTT method is not readily adapted for use with suspension cell cultures, therefore the XTT assay was used to assess the proliferation of HL60 cells. Briefly, HL60-par, HL60-ABCB1, HL60-ABCG2, and HL60-ABCC1 cells were seeded at 2 × 10^4 cells/well in 96-well culture plates. Immediately after seeding, dilutions of the tested drugs or drug combinations were added to the cells. The plates were then incubated under standard conditions (37 °C, 5% CO2) for 48 h, after which XTT solution in PBS (1 mg/mL) and phenazine methosulfate (7.50 µg/mL) were added to the cells and the plates were incubated for another 5 h. Finally, the cells’ absorbance was measured at 450 nm using a microplate reader (Infinite M200, Tecan, Salzburg, Austria). This method was used to assess the effect of ABC transporters on sensitivity to ensartinib and in drug combination assays.
Experiments focusing on the modulation of ABC transporter-mediated resistance were performed as described previously. The parent MDCKII and HL60 cells and their ABCB1-, ABCG2-, and ABCC1-overexpressing counterparts were seeded at the densities specified above onto 96-well culture plates and cultured for 24 h. The medium was subsequently replaced with serial dilutions of ensartinib alone or with various concentrations of a model MDR-susceptible cytostatic agent (daunorubicin or mitoxantrone) with or without 10 µM ensartinib. After 48 h incubation, the cells’ viability was determined as described above. In addition to performing IC50-shift analyses, the viability measurements were converted to FA (fraction of cells affected) values and the effects of drug combinations were quantified using the Chou-Talalay combination index (CI) method as implemented in CompuSyn 3.0.1 (ComboSyn Inc., Paramus, NJ, USA). The effects of concomitantly administered drugs were classified as synergistic (CI < 0.9), additive (0.9 < CI < 1.1), or antagonistic (CI > 1.1) based on the computed CI values.

inhibitory effect on CYP2D6 (in words) (CYP2D6): no appreciable inhibitory effect
pIC50 (CYP2D6; 15 min incubation, absolute IC50, read-out: CYP2D6 inhibition IC50): < 4.30
effect on baseline vanadate-sensitive ATPase activity of ABCB1 (ABCB1; activation experiment): significantly increased
effect on verapamil-stimulated ATPase activity of ABCB1 (ABCB1; inhibition experiment): significantly decreased
Structure (SMILES): C[C@@H]1CN(C(=O)c2ccc(NC(=O)c3cc(O[C@H](C)c4c(Cl)ccc(F)c4Cl)c(N)nn3)cc2)C[C@H](C)N1 [ensartinib, Ensartinib]
combination effect (Chou-Talalay combination index) (HL60-ABCG2 cells; 10 µM ensartinib with mitoxantrone): synergistic (synergistic (CI < 0.9))
RR (reversal ratio) (HL60-ABCG2 cells; mitoxantrone, IC50 single drug / IC50 combined with 10 µM ensartinib): 18.6
